Measured values taken from ChEMBL document CHEMBL1122133, “(+/-)-cis-2-acetoxycyclobutyltrimethylammonium iodide: a semirigid analogue of acetylcholine” (1982).

Species: Cavia porcellus
Assay: Evaluated for muscarinic activity using guinea pig ilea
Assay type: functional

Structure (SMILES) | ID50 [nM]
CC(=O)O[C@H]1CC[C@H]1[N+](C)(C)C.[I-] | 83
CC(=O)O[C@@H]1CC[C@H]1[N+](C)(C)C.[I-] | 68
